According to patent US9636323B2, “Method of treating cancer that overexpresses TopBP1” (Baylor College of Medicine, priority 2014, dated 2017):

Experiments:
[1] = test system: TopBP1-BRCT7/8 binding to p53(DBD); assay: GST-p53(DBD) pulldown assay; details: FIG. 1g
Description: Purified TopBP1-BRCT7/8 (2 μg) was incubated with compounds in NETN-A buffer as above at 4° C. for 3 h with constant rotation. Then purified GST-p53-DBD or GST (2 μg) were added and rotated for another 3 h at 4° C. GST-p53-DBD was then pulled down with glutathione-Sepharose. The beads were washed six times with NETN-B buffer and then subjected to SDS-PAGE analysis.

[2] = test system: TopBP1-BRCT7/8 binding to pS1159 peptide; assay: pS1159 peptide binding assay (streptavidin Sepharose pulldown); details: FIG. 1f
Description: The GST fusion proteins in Escherichia coli strain BL21 were induced by 0.1 mM IPTG (isopropyl-β-D-thiogalactopyranoside) and purified according to the standard protocol. The GST portion on GST-TopBP1-BRCT7/8 was excised by Pre-Scission protease (Pharmacia). Two purified (>98%) biotin conjugated peptides were synthesized from Sigma Genosys. The peptide sequence is derived from the surrounding sequence of TopBP1 S1159: pP, Btn-[…]pSer^1159NLQWPS and nP, Btn-[…]. Purified TopBP1-BRCT7/8 (2 μg) was incubated with compounds in NETN-A buffer (50 mM NaCl, 1 mM EDTA, 20 mM Tris, 0.5% NP-40) at 4° C. for 3 h with constant rotation. Then 2 μg of purified pP or nP peptides were added and rotated for another 3 h at 4° C. The biotin-conjugated peptides were then pulled down with streptavidin-Sepharose (Amersham). The beads were washed six times with NETN-B buffer (100 mM NaCl, 1 mM EDTA, 0.2 mM phenylmethylsulfonyl fluoride) and then subjected to sodium dodecyl sulfate-polyacrylamide gel electrophoresis (SDS-PAGE) and analyzed by Western blotting with anti-TopBP1 antibody (1:1000, BL893, Bethyl Laboratories).

concentrations at which TopBP1/p53(DBD) interaction was blocked [1]: submicromolar
effective amount of Calcein that needs to be present ([1]; GST-p53(DBD) pulldown): 60 to 300 nM
concentrations at which TopBP1/pS1159 interaction was blocked [2]: submicromolar
effective amount of Calcein that needs to be present ([2]; pS1159 peptide binding): 60 to 300 nM
Compound: O=C(O)CN(CC(=O)O)Cc1cc2c(cc1O)Oc1cc(O)c(CN(CC(=O)O)CC(=O)O)cc1C21OC(=O)c2ccccc21 [Calcein, calcein]
